# Active and inactive are the calls of the source. No cut-off for these calls is given here.
# What was measured:
# [1] = molecular target: T1, Short transient receptor potential channel 3 (Homo sapiens) (UniProt Q13507); assay: Antagonist activity at human TRPC3 expressed in HEK293 cells assessed as inhibition of carbachol-induced activity at 10 uM measured after 48 hrs by Whole-cell patch clamp electrophysiology relative to control; format: cell-based
# T1 sequence (whole entry): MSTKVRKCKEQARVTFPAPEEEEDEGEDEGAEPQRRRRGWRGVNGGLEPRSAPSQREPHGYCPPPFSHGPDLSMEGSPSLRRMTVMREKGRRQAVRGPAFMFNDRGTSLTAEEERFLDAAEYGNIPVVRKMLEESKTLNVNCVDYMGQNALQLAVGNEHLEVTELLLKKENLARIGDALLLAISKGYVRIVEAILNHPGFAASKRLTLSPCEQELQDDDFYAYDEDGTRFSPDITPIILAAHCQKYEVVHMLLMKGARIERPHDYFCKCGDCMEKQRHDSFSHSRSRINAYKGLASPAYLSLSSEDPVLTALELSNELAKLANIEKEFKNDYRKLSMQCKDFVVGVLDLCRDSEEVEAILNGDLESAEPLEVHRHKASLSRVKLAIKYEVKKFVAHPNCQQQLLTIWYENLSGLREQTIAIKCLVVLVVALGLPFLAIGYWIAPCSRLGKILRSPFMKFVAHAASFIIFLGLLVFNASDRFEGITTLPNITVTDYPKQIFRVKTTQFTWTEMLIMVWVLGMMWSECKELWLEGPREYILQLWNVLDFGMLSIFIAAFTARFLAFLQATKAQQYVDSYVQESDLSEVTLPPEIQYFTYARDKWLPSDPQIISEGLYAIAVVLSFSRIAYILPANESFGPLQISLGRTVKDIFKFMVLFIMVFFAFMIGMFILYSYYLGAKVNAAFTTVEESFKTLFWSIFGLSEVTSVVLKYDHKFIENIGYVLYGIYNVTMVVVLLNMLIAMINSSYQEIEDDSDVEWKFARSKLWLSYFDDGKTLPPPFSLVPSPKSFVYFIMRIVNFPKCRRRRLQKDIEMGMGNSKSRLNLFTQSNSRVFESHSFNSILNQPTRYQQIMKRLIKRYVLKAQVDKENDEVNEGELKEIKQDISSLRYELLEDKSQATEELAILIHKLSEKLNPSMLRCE
# [2] = molecular target: T2, Short transient receptor potential channel 6 (Homo sapiens) (UniProt Q9Y210); assay: Antagonist activity at human TRPC6 expressed in HEK293 cells assessed as inhibition of carbachol-induced activity at 10 uM measured after 48 hrs by Whole-cell patch clamp electrophysiology; format: cell-based
# T2 sequence (whole entry): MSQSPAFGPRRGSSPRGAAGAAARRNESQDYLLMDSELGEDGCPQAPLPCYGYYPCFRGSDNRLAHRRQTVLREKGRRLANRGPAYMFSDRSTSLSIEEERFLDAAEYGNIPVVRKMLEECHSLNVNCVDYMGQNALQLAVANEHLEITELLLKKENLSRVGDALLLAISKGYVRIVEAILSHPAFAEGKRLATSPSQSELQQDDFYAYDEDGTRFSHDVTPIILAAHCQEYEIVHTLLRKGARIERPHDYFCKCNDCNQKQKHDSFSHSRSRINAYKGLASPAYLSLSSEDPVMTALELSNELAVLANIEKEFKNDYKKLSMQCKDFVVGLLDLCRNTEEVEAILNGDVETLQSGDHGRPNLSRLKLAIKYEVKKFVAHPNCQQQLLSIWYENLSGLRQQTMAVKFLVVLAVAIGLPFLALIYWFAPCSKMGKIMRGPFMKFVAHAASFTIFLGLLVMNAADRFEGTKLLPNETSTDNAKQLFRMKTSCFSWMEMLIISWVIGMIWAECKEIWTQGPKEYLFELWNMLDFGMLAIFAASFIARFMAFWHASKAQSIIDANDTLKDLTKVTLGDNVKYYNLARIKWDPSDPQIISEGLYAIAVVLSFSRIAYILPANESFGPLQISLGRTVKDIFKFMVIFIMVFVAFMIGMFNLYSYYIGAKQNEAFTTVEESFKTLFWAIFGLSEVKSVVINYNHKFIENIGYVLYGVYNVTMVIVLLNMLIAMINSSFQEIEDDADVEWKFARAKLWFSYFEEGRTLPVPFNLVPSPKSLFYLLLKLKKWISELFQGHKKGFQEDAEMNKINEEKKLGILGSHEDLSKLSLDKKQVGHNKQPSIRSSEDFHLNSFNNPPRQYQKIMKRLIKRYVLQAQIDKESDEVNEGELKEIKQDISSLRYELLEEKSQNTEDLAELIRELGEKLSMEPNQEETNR
# [3] = molecular target: Transient receptor potential cation channel subfamily M member 8 (Rattus norvegicus) (UniProt Q8R455); assay: Antagonist activity at rat TRPM8 expressed in HEK293 cells assessed as inhibition of carbachol-induced activity at 10 uM measured after 48 hrs by Whole-cell patch clamp electrophysiology; format: cell-based
# Sequence of Transient receptor potential cation channel subfamily M member 8 (Rattus norvegicus) (Q8R455 whole entry, looked up): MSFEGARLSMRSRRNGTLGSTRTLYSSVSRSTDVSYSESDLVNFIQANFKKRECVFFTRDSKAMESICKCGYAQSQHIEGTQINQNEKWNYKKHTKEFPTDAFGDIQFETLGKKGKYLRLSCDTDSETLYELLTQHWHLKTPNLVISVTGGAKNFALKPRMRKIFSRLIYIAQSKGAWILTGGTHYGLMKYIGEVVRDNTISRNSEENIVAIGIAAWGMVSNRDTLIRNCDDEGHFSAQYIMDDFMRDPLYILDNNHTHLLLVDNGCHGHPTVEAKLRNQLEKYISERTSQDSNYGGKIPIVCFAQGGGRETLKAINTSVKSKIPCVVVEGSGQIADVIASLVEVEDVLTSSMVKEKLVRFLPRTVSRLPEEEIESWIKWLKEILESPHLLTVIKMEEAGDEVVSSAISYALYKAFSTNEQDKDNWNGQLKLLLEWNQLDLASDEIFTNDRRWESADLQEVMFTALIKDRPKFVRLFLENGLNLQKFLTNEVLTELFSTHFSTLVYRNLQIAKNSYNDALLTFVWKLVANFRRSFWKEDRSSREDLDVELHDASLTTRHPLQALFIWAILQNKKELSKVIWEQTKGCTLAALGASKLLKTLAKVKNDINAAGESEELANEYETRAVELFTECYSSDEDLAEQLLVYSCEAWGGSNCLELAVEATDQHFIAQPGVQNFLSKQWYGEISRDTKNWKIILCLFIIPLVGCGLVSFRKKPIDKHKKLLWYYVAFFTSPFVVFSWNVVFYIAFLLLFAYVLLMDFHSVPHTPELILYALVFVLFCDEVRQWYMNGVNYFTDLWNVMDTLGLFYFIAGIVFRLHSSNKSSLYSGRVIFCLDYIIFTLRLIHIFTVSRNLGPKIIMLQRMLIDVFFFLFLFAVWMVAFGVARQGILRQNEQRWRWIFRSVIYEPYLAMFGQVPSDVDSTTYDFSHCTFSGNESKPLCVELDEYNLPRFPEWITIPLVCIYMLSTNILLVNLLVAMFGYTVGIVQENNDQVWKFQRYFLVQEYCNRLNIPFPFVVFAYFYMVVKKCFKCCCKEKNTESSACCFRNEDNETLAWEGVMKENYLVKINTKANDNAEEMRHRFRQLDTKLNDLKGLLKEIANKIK
# [4] = molecular target: T3, Short transient receptor potential channel 7 (Homo sapiens) (UniProt Q9HCX4); assay: Antagonist activity at human TRPC7 expressed in HEK293 cells assessed as inhibition of carbachol-induced activity at 10 uM measured after 48 hrs by Whole-cell patch clamp electrophysiology; format: cell-based
# T3 sequence (whole entry): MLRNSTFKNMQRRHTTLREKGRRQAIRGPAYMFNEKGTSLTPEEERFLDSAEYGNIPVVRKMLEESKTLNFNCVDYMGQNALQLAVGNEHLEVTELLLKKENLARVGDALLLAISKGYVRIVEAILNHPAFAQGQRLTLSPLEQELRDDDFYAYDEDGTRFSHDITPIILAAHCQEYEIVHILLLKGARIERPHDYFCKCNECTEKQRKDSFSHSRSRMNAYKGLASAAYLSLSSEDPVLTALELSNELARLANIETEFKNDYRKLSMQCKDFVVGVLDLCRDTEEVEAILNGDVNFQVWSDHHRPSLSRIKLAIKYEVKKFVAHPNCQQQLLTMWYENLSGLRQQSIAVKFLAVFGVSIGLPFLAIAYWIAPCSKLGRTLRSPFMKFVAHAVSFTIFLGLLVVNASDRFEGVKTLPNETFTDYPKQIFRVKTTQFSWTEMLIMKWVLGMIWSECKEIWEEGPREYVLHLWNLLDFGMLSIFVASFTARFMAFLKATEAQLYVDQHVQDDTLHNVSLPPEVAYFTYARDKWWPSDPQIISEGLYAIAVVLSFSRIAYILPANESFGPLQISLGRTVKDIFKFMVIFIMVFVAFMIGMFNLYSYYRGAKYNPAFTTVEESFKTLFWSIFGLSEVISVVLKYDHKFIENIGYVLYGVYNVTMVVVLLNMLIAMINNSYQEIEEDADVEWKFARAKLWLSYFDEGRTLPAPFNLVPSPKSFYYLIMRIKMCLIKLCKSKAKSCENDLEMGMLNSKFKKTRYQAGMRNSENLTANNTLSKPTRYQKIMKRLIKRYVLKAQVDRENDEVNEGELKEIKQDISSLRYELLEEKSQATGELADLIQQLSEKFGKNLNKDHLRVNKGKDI
# [5] = molecular target: Short transient receptor potential channel 1 (Rattus norvegicus) (UniProt Q9QX01); assay: Antagonist activity at rat TRPC1 expressed in HEK293 cells assessed as inhibition of carbachol-induced activity at 10 uM measured after 48 hrs by Whole-cell patch clamp electrophysiology; format: cell-based
# Sequence of Short transient receptor potential channel 1 (Rattus norvegicus) (Q9QX01 whole entry): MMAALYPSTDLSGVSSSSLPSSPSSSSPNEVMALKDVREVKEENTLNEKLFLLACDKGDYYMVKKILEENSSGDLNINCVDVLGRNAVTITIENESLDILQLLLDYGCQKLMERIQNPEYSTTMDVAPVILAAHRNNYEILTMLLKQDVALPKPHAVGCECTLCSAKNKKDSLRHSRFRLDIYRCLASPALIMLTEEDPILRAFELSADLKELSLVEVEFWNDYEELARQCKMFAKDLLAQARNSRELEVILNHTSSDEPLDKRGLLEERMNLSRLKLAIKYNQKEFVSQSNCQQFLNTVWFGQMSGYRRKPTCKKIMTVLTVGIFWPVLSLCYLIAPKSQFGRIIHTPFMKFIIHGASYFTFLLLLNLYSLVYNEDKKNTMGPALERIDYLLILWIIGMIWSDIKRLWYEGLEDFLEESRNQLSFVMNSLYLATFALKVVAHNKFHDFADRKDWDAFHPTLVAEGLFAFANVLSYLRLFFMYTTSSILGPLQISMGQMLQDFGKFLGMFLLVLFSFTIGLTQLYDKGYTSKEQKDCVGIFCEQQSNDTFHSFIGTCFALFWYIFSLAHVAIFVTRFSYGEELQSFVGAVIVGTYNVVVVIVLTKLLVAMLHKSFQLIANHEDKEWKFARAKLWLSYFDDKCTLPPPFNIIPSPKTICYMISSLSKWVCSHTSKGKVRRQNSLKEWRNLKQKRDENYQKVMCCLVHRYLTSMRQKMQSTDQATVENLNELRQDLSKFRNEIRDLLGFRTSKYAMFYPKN
# [6] = molecular target: Short transient receptor potential channel 1 (Mus musculus) (UniProt Q61056); assay: Antagonist activity at mouse TRPC1 expressed in HEK293 cells assessed as inhibition of carbachol-induced activity at 10 uM measured after 48 hrs by Whole-cell patch clamp electrophysiology; format: cell-based
# Sequence of Short transient receptor potential channel 1 (Mus musculus) (Q61056 whole entry): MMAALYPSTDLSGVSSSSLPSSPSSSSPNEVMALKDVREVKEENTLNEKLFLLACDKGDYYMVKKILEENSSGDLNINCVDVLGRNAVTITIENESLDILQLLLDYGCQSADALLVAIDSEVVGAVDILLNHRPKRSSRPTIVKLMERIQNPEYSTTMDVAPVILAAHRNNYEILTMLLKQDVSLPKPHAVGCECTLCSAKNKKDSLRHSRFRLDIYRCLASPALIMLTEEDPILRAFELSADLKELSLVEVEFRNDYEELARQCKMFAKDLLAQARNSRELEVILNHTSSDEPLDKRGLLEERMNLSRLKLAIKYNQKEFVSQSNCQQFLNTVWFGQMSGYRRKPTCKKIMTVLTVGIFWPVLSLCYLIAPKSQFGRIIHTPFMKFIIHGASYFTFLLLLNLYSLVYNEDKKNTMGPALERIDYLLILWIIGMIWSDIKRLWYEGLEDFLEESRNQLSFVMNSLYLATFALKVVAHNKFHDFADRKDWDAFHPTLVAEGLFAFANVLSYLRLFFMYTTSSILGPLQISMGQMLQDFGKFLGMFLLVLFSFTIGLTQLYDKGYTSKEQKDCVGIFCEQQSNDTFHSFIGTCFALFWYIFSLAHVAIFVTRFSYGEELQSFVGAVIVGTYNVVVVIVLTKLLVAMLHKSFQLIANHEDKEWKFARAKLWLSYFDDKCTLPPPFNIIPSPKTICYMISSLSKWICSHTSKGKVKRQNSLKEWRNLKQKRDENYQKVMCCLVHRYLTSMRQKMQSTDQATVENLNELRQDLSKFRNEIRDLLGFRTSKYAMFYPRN
# [7] = Cytotoxicity against Sprague-Dawley rat primary hippocampal cells at 100 nM; format: toxicity, cell-based; details: hippocampal neurone, 0.1 µM
# [8] = Kinetic solubility of the compound in ph 7.4 PBS buffer measured after 24 hrs shaken by HPLC and UPLC system; format: physicochemical; details: read-out: Kinetic_solubility
# Hippocampal neurone = assay: Rescuing beta-amyloid induced neuronal cell damage in Sprague-Dawley rat primary hippocampal cell culture (composed of 60% primary neuron, 20% microglia and 20% astrocyte) assessed as decrease in soluble oligomeric Abeta-containing media (7PA2 cells) induced synaptic toxicity at 250 nM; format: functional, cell-based
structure (smiles),measurement,setting,value
CC(C)CNC(=O)c1cnn(-c2ccc(-n3ccc(Cl)c(Cl)c3=O)cc2)c1C(F)(F)F,inhibition,[1]; filed as antagonist,> 90%
CNC(=O)c1cnn(-c2ccc(-n3ccc(Cl)c(Cl)c3=O)cc2)c1C(F)(F)F,inhibition,[1]; filed as antagonist,> 80%
CS(=O)(=O)c1cnn(-c2ccc(-n3ccc(Cl)c(Cl)c3=O)cc2)c1C(F)(F)F,inhibition,[1],< 80%
CC(=O)c1cnn(-c2ccc(-n3ccc(Cl)c(Cl)c3=O)cc2)c1C(F)(F)F,inhibition,[1]; filed as antagonist,> 80%
CCNC(=O)c1nn(-c2ccc(-n3ccc(Cl)c(Cl)c3=O)cc2)nc1C(F)(F)F,inhibition,[1]; filed as antagonist,> 80%
CCNC(=O)c1cnn(-c2ccc(-n3ccc(Cl)c(Cl)c3=O)cc2)c1Cl,inhibition,[1],< 80%
CCNC(=O)c1cnn(-c2ccc(-n3ccc(OC)c(Cl)c3=O)cc2)c1C(F)(F)F,inhibition,[1],< 80%
CCC(=O)Nc1cnn(-c2ccc(-n3ccc(Cl)c(Cl)c3=O)cc2)c1C(F)(F)F,inhibition,[1]; filed as antagonist,> 80%
CCNC(=O)c1cn(-c2ccc(-n3ccc(Cl)c(Cl)c3=O)cc2)nc1C(F)(F)F,inhibition,[1]; filed as antagonist,> 97%
CCc1nnc(-c2cnn(-c3ccc(-n4ccc(Cl)c(Cl)c4=O)cc3)c2C(F)(F)F)o1,inhibition,[1]; filed as antagonist,> 90%
CCNC(=O)c1cnn(-c2ccc(-n3ccc(C(F)(F)F)c(Cl)c3=O)cc2)c1C(F)(F)F,inhibition,[1]; filed as antagonist,> 80%
CCNC(=O)c1ncn(-c2ccc(-n3ccc(Cl)c(Cl)c3=O)cc2)c1C(F)(F)F,inhibition,[1]; filed as antagonist,> 90%
O=C(c1cnn(-c2ccc(-n3ccc(Cl)c(Cl)c3=O)cc2)c1C(F)(F)F)N1CCCC1,inhibition,[1]; filed as antagonist,> 80%
CCNC(=O)c1cnn(-c2ccc(-n3ccc(Cl)c(Br)c3=O)cc2)c1C(F)(F)F,inhibition,[1],< 80%
CCNC(=O)c1cnn(-c2ccc(-n3ccc(O)c(Cl)c3=O)cc2)c1C(F)(F)F,inhibition,[1]; filed as antagonist,> 90%
CCNC(=O)c1cnn(-c2ccc(-n3ccc(Cl)c(Cl)c3=O)cc2)c1S(C)(=O)=O,inhibition,[1],< 80%
O=C(NC1CC1)c1cnn(-c2ccc(-n3ccc(Cl)c(Cl)c3=O)cc2)c1C(F)(F)F,inhibition,[1],< 80%
CCN(CC)Cc1cnn(-c2ccc(-n3ccc(Cl)c(Cl)c3=O)cc2)c1C(F)(F)F,inhibition,[1]; filed as antagonist,> 80%
CCNC(=O)c1sc(-c2ccc(-n3ccc(Cl)c(Cl)c3=O)cc2)nc1C(F)(F)F,inhibition,[1],< 80%
CCNC(=O)c1nnn(-c2ccc(-n3ccc(Cl)c(Cl)c3=O)cc2)c1C(F)(F)F,inhibition,[1],< 80%
CCOC(=O)c1cnn(-c2ccc(NC(=O)C(Cl)=C(Cl)Cl)cc2)c1C(F)(F)F,Activity,[2],inactive
same,Activity,[3],inactive
same,Activity,[4],inactive
same,Activity,[5],inactive
same,inhibition,[1]; filed as antagonist,> 80%
same,Activity,[6],inactive
CCCC(=O)c1cnn(-c2ccc(-n3ccc(Cl)c(Cl)c3=O)cc2)c1C(F)(F)F,inhibition,[1],< 80%
CCCCNC(=O)c1cnn(-c2ccc(-n3ccc(Cl)c(Cl)c3=O)cc2)c1C(F)(F)F,inhibition,[1],< 80%
NC(=O)c1cnn(-c2ccc(-n3ccc(Cl)c(Cl)c3=O)cc2)c1C(F)(F)F,inhibition,[1],< 80%
CCCNC(=O)c1cnn(-c2ccc(-n3ccc(Cl)c(Cl)c3=O)cc2)c1C(F)(F)F,inhibition,[1],< 80%
CCNC(=O)c1cnn(-c2ccc(-n3ccc(Cl)c(Cl)c3=O)cc2)c1C(F)(F)F,Activity,[7],Non-toxic
same,solubility kinetic at 24 h,[8],144 µM
same,Activity,[2],inactive
same,Activity,Hippocampal neurone,Active
same,Activity,[3],inactive
same,Activity,[4],inactive
same,Activity,[5],inactive
same,inhibition,[1]; filed as antagonist,> 80%
same,Activity,[6],inactive
CCNC(=O)c1cnn(-c2ccc(-n3ccc(Cl)c(Cl)c3=O)cc2)c1,inhibition,[1]; filed as antagonist,> 97%
CCNC(=O)c1cnn(-c2ccc(-n3ccc(Cl)c(Cl)c3=O)cc2)c1C#N,inhibition,[1]; filed as antagonist,> 80%
CCN(CC)C(=O)c1cnn(-c2ccc(-n3ccc(Cl)c(Cl)c3=O)cc2)c1C(F)(F)F,inhibition,[1]; filed as antagonist,> 90%
CCNC(=O)c1cnn(-c2ccc(-n3ccc(Cl)c(Cl)c3=O)cn2)c1C(F)(F)F,inhibition,[1],< 80%
CC(C)NC(=O)c1cnn(-c2ccc(-n3ccc(Cl)c(Cl)c3=O)cc2)c1C(F)(F)F,inhibition,[1],< 80%
CCOCc1cnn(-c2ccc(-n3ccc(Cl)c(Cl)c3=O)cc2)c1C(F)(F)F,inhibition,[1],< 80%

# — ChEMBL document CHEMBL6078670, “Discovery of a potent and selective TRPC3 antagonist with neuroprotective effects” (Bioorg Med Chem, 2025)
